Earlier results as cited in US6436435B1, “Liposome formulation of 5 β steroids” (Super Gen, Inc., priority 1995, dated 2002).

What was measured:
genetically obese mice = details: variety of routes
[1] = tested on: genetically obese and diabetic mice; details: maximal benefit when ingested
[2] = tested on: severely diabetic mammals; details: oral administration
[3] = tested on: individuals suffering from Prader-Willi Syndrome; details: in vivo
[4] = tested on: C57BL/KsJ-db/db diabetic mice; details: for effectiveness in preventing development of diabetes relative to DHEA: C57BL/KsJ-db/db diabetic mice; for blood sugar / plasma insulin concentrations: mouse, in vivo
[5] = tested on: diabetic genetically obese mice; details: supplied in the diet
obese mice = details: injected im, ip or iv / parenteral
[6] = tested on: congenitally obese mice carrying the ob ob mutation

Molecule: C[C@]12CC[C@H](O)CC1=CC[C@@H]1[C@@H]2CC[C@]2(C)C(=O)CC[C@@H]12 [DHEA, 3-β-hydroxy-androst-5-en-17-one]
- rate of weight gain (genetically obese mice): decreased the rate of weight gain
- development of diabetes [1]: markedly reduced the development of diabetes
- glucose tolerance [2]: improved glucose tolerance
- hyperglycemia [2]: restored hyperglycemia to normal levels

Molecule: C[C@]12CCC(=O)C[C@H]1CC[C@@H]1[C@@H]2CC[C@]2(C)C(=O)CC[C@@H]12 [ED, 5β-androstane-3,17-dione]
- body weight in Prader-Willi Syndrome [3]: either weight loss or a decrease in the rate of weight gain
- subjective or objective side effects (oral ED four grams per day): no significant subjective or objective side effects
- weight loss per week per 100 kilograms of body fat (oral ED four grams per day): 0.5±0.91 kilograms per week per 100 kilograms of body fat
- mean weight loss during ED administration (oral ED four grams per day, 10 week period, 14 obese subjects): 2.8±5.5 kilograms
- mean fat loss, of the initial body fat content (over the 10 week period of ED administration): about 5%

Molecule: C[C@]12CC[C@@H](O)C[C@@H]1CC[C@@H]1[C@@H]2CC[C@]2(C)C(=O)CC[C@@H]12 [androsterone]
- effectiveness in preventing development of diabetes relative to DHEA [4]: not

Molecule: C[C@]12CC[C@H](O)C[C@@H]1CC[C@@H]1[C@@H]2CC[C@]2(C)C(=O)CC[C@@H]12 [epiandrosterone]
- effectiveness in preventing development of diabetes relative to DHEA [4]: not

Molecule: C[C@]12CC[C@@H](O)C[C@H]1CC[C@@H]1[C@@H]2CC[C@]2(C)C(=O)CC[C@@H]12 [etiocholanolone]
- body weight in Prader-Willi Syndrome [3]: either weight loss or a decrease in the rate of weight gain

Molecule: C[C@]12CC[C@@H](O)C[C@H]1CC[C@@H]1[C@@H]2CC[C@]2(C)C(=O)CC[C@@H]12 [α ET, 3α-hydroxy-5β-androstane-17-one]
- effectiveness in preventing development of diabetes relative to DHEA [4]: four times more effective than DHEA
- blood sugar [4]: reduce blood sugar
- plasma insulin concentrations [4]: increased plasma insulin concentrations
- anti-obesity properties [5]: can prevent and arrest the development of obesity
- anti-obesity effect, injected (obese mice): does not exert an anti-obesity effect

Molecule: C[C@]12CC[C@H](O)C[C@H]1CC[C@@H]1[C@@H]2CC[C@]2(C)C(=O)CC[C@@H]12 [β ET, 3β-hydroxy-5β-androstane-17-one]
- effectiveness in preventing development of diabetes relative to DHEA [4]: four times more effective than DHEA
- blood sugar [4]: reduce blood sugar
- plasma insulin concentrations [4]: increased plasma insulin concentrations
- anti-obesity properties [5]: can prevent and arrest the development of obesity
- anti-obesity effect, injected (obese mice): does not exert an anti-obesity effect

B1: OB protein: protein product of the recombinant gene ob in mice and its human homologue (protein, UniProt P41160 22-167, looked up)
Leptin: VPIQKVQDDTKTLIKTIVTRINDISHTQSVSAKQRVTGLDFIPGLHPILSLSKMDQTLAVYQQVLTSLPSQNVLQIANDLENLRDLLHLLAFSKSCSLPQTSGLQKPESLDGVLEASLYSTEVVALSRLQGSLQDILQQLDVSPEC
- serum insulin and glucose levels ([6]; highest dose tested, 10 mg/kg per day): normalized to the level typically seen in the non-mutant mice
- body weight effect ([6]; parenteral administration): weight reducing effects
